ChEMBL document CHEMBL4334548, “Discovery of Isoxazole Amides as Potent and Selective SMYD3 Inhibitors” (ACS Med Chem Lett, 2020)
Values after ≈ are worked out from the molar mass of the structure shown.

What was measured:
[1] = Permeability of compound; assay type: ADME; conditions: not told; read-out: permeability
[2] = Solubility of compound by CLND method; assay type: physicochemical
[3] = Half life in Sprague-Dawley rat at 1 mg/kg, iv or 2 mg/kg, po; assay type: ADME, organism-based; conditions: in vivo
[4] = Oral bioavailability in Sprague-Dawley rat at 2 mg/kg; assay type: ADME, organism-based; conditions: in vivo; for bioavailability: Sprague-Dawley
[5] = Clearance in Sprague-Dawley rat at 1 mg/kg, iv or 2 mg/kg, po; assay type: ADME, organism-based; conditions: in vivo
[6] = Volume of distribution in Sprague-Dawley rat at 1 mg/kg, iv or 2 mg/kg, po; assay type: ADME, organism-based; conditions: in vivo
[7] = AUC in Sprague-Dawley rat at 2 mg/kg, po; assay type: ADME, organism-based; conditions: in vivo
[8] = Volume of distribution in Sprague-Dawley rat at 0.5 mg/kg, iv or 2 mg/kg, po; assay type: ADME, organism-based; conditions: in vivo
[9] = Half life in Sprague-Dawley rat at 0.5 mg/kg, iv or 2 mg/kg, po; assay type: ADME, organism-based; conditions: in vivo
[10] = Clearance in Sprague-Dawley rat at 0.5 mg/kg, iv or 2 mg/kg, po; assay type: ADME, organism-based; conditions: in vivo
[11] = Oral bioavailability in Sprague-Dawley rat at 5 mg/kg; assay type: ADME, organism-based; conditions: in vivo
[12] = Volume of distribution in Sprague-Dawley rat at 1 mg/kg, iv or 5 mg/kg, po; assay type: ADME, organism-based; conditions: in vivo
[13] = Half life in Sprague-Dawley rat at 1 mg/kg, iv or 5 mg/kg, po; assay type: ADME, organism-based; conditions: in vivo
[14] = AUC in Sprague-Dawley rat at 5 mg/kg, po; assay type: ADME, organism-based; conditions: in vivo

| Structure (SMILES) | Papp [1] | solubility kinetic [2] | other results |
| --- | --- | --- | --- |
| CN(C)Cc1ccc(S(=O)(=O)N2CCC(NC(=O)c3cc(C4CC4)on3)CC2)cc1 | 20 ×10⁻⁶ cm/s | 130 µM (≈ 56.2 µg/mL) |  |
| CC(C)(C)CN[C@H]1CC[C@H](CS(=O)(=O)N2CCC(NC(=O)c3cc(C4CC4)on3)CC2)CC1 | 14 ×10⁻⁶ cm/s | 367 µM (≈ 176 µg/mL) |  |
| O=C(NC1CCN(S(=O)(=O)C[C@H]2CC[C@H](NCc3ccccn3)CC2)CC1)c1cc(C2CC2)on1 | 6.4 ×10⁻⁶ cm/s | 52 µM (≈ 26.1 µg/mL) |  |
| CCS(=O)(=O)N1CCC(NC(=O)c2cc(C3CC3)on2)CC1 | 24 ×10⁻⁶ cm/s | 306 µM (≈ 100 µg/mL) |  |
| O=C(NC1CCN(S(=O)(=O)C[C@H]2CC[C@H](NCc3ccc(F)cn3)CC2)CC1)c1cc(C2CC2)on1 | 19 ×10⁻⁶ cm/s | 141 µM (≈ 73.3 µg/mL) | half-life [3]: 10.8 h; bioavailability [4]: 59%; clearance [5]: 17 mL/min/kg; Vd [6]: 12 L/kg; AUC ([7]; Sprague-Dawley, read-out: AUC): 578 ng·h/mL |
| CN(C)[C@H]1CC[C@H](CS(=O)(=O)N2CCC(NC(=O)c3cc(C4CC4)on3)CC2)CC1 | < 1 ×10⁻⁶ cm/s | 126 µM (≈ 55.3 µg/mL) |  |
| CS(=O)(=O)N1CCC(NC(=O)c2cc(C3CC3)on2)CC1 | 12 ×10⁻⁶ cm/s | 55 µM (≈ 17.2 µg/mL) | F [11]: 79%; Vd [12]: 1.2 L/kg; half-life [13]: 2.5 h; AUC [14]: 2142 ng·h/mL |
| O=C(NC1CCN(S(=O)(=O)C[C@H]2CC[C@H](NCc3cccc(Cl)c3)CC2)CC1)c1cc(C2CC2)on1 | 18 ×10⁻⁶ cm/s | 4 µM (≈ 2.14 µg/mL) |  |
| NCCS(=O)(=O)N1CCC(NC(=O)c2cc(C3CC3)on2)CC1 | < 1 ×10⁻⁶ cm/s | 375 µM (≈ 128 µg/mL) |  |
| O=C(NC1CCN(S(=O)(=O)[C@H]2CC[C@H](NCCCC(F)(F)F)CC2)CC1)c1cc(C2CC2)on1 |  |  | half-life [3]: 8.6 h; bioavailability [4]: 86%; clearance [5]: 20 mL/min/kg; Vd [6]: 12.5 L/kg; AUC ([7]; Sprague-Dawley, read-out: AUC): 967 ng·h/mL |
| O=C(NC1CCN(S(=O)(=O)c2ccc(CN3CCC3)cc2)CC1)c1cc(C2CC2)on1 | 16 ×10⁻⁶ cm/s | 302 µM (≈ 134 µg/mL) |  |
| O=C(NC1CCN(S(=O)(=O)C[C@H]2CC[C@H](NCc3ccccc3F)CC2)CC1)c1cc(C2CC2)on1 | 32 ×10⁻⁶ cm/s | 297 µM (≈ 154 µg/mL) | half-life [3]: 1.7 h; F [4]: 65%; Vd [6]: 9.4 L/kg; AUC [7]: 87 ng·h/mL |
| Cc1ccc(CN[C@H]2CC[C@H](CS(=O)(=O)N3CCC(NC(=O)c4cc(C5CC5)on4)CC3)CC2)cc1 | 14 ×10⁻⁶ cm/s | 10 µM (≈ 5.15 µg/mL) |  |
| O=C(NC1CCN(S(=O)(=O)C2CCNCC2)CC1)c1cc(C2CC2)on1 | 0.69 ×10⁻⁶ cm/s | 515 µM (≈ 197 µg/mL) | bioavailability [4]: 27%; Vd [8]: 4.5 L/kg; half-life [9]: 2.7 h; clearance [10]: 37 mL/min/kg; AUC ([7]; Sprague-Dawley, read-out: AUC): 123 ng·h/mL |
| O=C(NC1CCN(S(=O)(=O)c2ccc(CN3CCCC3)cc2)CC1)c1cc(C2CC2)on1 | 13 ×10⁻⁶ cm/s | 122 µM (≈ 55.9 µg/mL) | Vd [8]: 6.7 L/kg; half-life [9]: 1.7 h; clearance [10]: 68 mL/min/kg; AUC ([7]; Sprague-Dawley, read-out: AUC): 295 ng·h/mL |
| CCN1CCC(S(=O)(=O)N2CCC(NC(=O)c3cc(C4CC4)on3)CC2)CC1 | 5.2 ×10⁻⁶ cm/s | 502 µM (≈ 206 µg/mL) |  |
| CCN[C@H]1CC[C@H](CS(=O)(=O)N2CCC(NC(=O)c3cc(C4CC4)on3)CC2)CC1 | < 0.3 ×10⁻⁶ cm/s | 295 µM (≈ 129 µg/mL) |  |
| NCCCCS(=O)(=O)N1CCC(NC(=O)c2cc(C3CC3)on2)CC1 | < 1 ×10⁻⁶ cm/s | 385 µM (≈ 143 µg/mL) |  |
| O=C(NC1CCN(S(=O)(=O)C2CCNC2)CC1)c1cc(C2CC2)on1 (stereo unspecified) | 2.4 ×10⁻⁶ cm/s | 406 µM (≈ 150 µg/mL) |  |
| CC(C)CN[C@H]1CC[C@H](CS(=O)(=O)N2CCC(NC(=O)c3cc(C4CC4)on3)CC2)CC1 | 6.1 ×10⁻⁶ cm/s | 434 µM (≈ 203 µg/mL) |  |
| CCCCN[C@H]1CC[C@H](CS(=O)(=O)N2CCC(NC(=O)c3cc(C4CC4)on3)CC2)CC1 | 6.8 ×10⁻⁶ cm/s | 234 µM (≈ 109 µg/mL) |  |
| NCc1ccc(S(=O)(=O)N2CCC(NC(=O)c3cc(C4CC4)on3)CC2)cc1 | 5.2 ×10⁻⁶ cm/s | 295 µM (≈ 119 µg/mL) | Vd [8]: 2.3 L/kg; half-life [9]: 0.2 h; clearance [10]: 311 mL/min/kg |
| Cc1cccc(CN[C@H]2CC[C@H](CS(=O)(=O)N3CCC(NC(=O)c4cc(C5CC5)on4)CC3)CC2)c1 | 17 ×10⁻⁶ cm/s | 21 µM (≈ 10.8 µg/mL) |  |
| O=C(NC1CCN(S(=O)(=O)C[C@H]2CC[C@H](NCc3ccc(F)cc3)CC2)CC1)c1cc(C2CC2)on1 |  | 3 µM (≈ 1.56 µg/mL) |  |

Second part, led by results:

| Papp [1] | solubility kinetic [2] | Structure (SMILES) | other results |
| --- | --- | --- | --- |
| < 1 ×10⁻⁶ cm/s | 420 µM (≈ 167 µg/mL) | N[C@H]1CC[C@@H](S(=O)(=O)N2CCC(NC(=O)c3cc(C4CC4)on3)CC2)CC1 |  |
| 7.9 ×10⁻⁶ cm/s | 26 µM (≈ 12.3 µg/mL) | O=C(NC1CCN(S(=O)(=O)c2ccc(CN3CCCCC3)cc2)CC1)c1cc(C2CC2)on1 |  |
| 5.5 ×10⁻⁶ cm/s | 194 µM (≈ 97.3 µg/mL) | O=C(NC1CCN(S(=O)(=O)C[C@H]2CC[C@H](NCc3cccnc3)CC2)CC1)c1cc(C2CC2)on1 |  |
|  | 14 µM (≈ 7.49 µg/mL) | CN(CCCC(F)(F)F)[C@H]1CC[C@H](CS(=O)(=O)N2CCC(NC(=O)c3cc(C4CC4)on3)CC2)CC1 |  |
| 14 ×10⁻⁶ cm/s | 9 µM (≈ 4.69 µg/mL) | O=C(NC1CCN(S(=O)(=O)C[C@H]2CC[C@H](NCCCC(F)(F)F)CC2)CC1)c1cc(C2CC2)on1 | bioavailability [4]: 79%; Vd [8]: 18.9 L/kg; half-life [9]: 12.8 h; clearance [10]: 20 mL/min/kg; AUC ([7]; Sprague-Dawley, read-out: AUC): 676 ng·h/mL |
|  | 1 µM (≈ 0.501 µg/mL) | O=C(NC1CCN(S(=O)(=O)C[C@H]2CC[C@H](NCc3ccccc3)CC2)CC1)c1cc(C2CC2)on1 | bioavailability [4]: 79%; Vd [8]: 16.1 L/kg; half-life [9]: 3.6 h; clearance [10]: 90 mL/min/kg; AUC ([7]; Sprague-Dawley, read-out: AUC): 149 ng·h/mL |
| 6.6 ×10⁻⁶ cm/s |  | O=C(NC1CCN(S(=O)(=O)C[C@H]2CC[C@H](NCc3cc(F)ccn3)CC2)CC1)c1cc(C2CC2)on1 |  |
| 20 ×10⁻⁶ cm/s | 277 µM (≈ 144 µg/mL) | O=C(NC1CCN(S(=O)(=O)C[C@H]2CC[C@H](NCc3cccc(F)c3)CC2)CC1)c1cc(C2CC2)on1 |  |
| 3.5 ×10⁻⁶ cm/s | 143 µM (≈ 64.7 µg/mL) | CCCN[C@H]1CC[C@H](CS(=O)(=O)N2CCC(NC(=O)c3cc(C4CC4)on3)CC2)CC1 |  |
| < 1 ×10⁻⁶ cm/s | 297 µM (≈ 122 µg/mL) | N[C@H]1CC[C@H](CS(=O)(=O)N2CCC(NC(=O)c3cc(C4CC4)on3)CC2)CC1 |  |
| 4.5 ×10⁻⁶ cm/s | 26 µM (≈ 13 µg/mL) | O=C(NC1CCN(S(=O)(=O)C[C@H]2CC[C@H](NCc3ccncc3)CC2)CC1)c1cc(C2CC2)on1 |  |
|  | 15 µM (≈ 7.72 µg/mL) | Cc1ccccc1CN[C@H]1CC[C@H](CS(=O)(=O)N2CCC(NC(=O)c3cc(C4CC4)on3)CC2)CC1 |  |
| 22 ×10⁻⁶ cm/s | 14 µM (≈ 7.51 µg/mL) | O=C(NC1CCN(S(=O)(=O)C[C@H]2CC[C@H](NCc3ccc(Cl)cn3)CC2)CC1)c1cc(C2CC2)on1 |  |
| 11 ×10⁻⁶ cm/s | 12 µM (≈ 6.24 µg/mL) | O=C(NC1CCN(S(=O)(=O)C[C@H]2CC[C@H](NCc3cncc(F)c3)CC2)CC1)c1cc(C2CC2)on1 |  |
| 5.6 ×10⁻⁶ cm/s | 474 µM (≈ 188 µg/mL) | CN1CCC(S(=O)(=O)N2CCC(NC(=O)c3cc(C4CC4)on3)CC2)CC1 |  |
| 44 ×10⁻⁶ cm/s | 6 µM (≈ 3.21 µg/mL) | O=C(NC1CCN(S(=O)(=O)C[C@H]2CC[C@H](NCc3ccc(Cl)cc3)CC2)CC1)c1cc(C2CC2)on1 | half-life [3]: 7.3 h; bioavailability [4]: 70%; clearance [5]: 36 mL/min/kg; Vd [6]: 14.7 L/kg; AUC ([7]; Sprague-Dawley, read-out: AUC): 365 ng·h/mL |
| 41 ×10⁻⁶ cm/s | 53 µM (≈ 29.1 µg/mL) | CCN(CCCC(F)(F)F)[C@H]1CC[C@H](CS(=O)(=O)N2CCC(NC(=O)c3cc(C4CC4)on3)CC2)CC1 |  |
| < 1 ×10⁻⁶ cm/s | 329 µM (≈ 130 µg/mL) | N[C@H]1CC[C@H](S(=O)(=O)N2CCC(NC(=O)c3cc(C4CC4)on3)CC2)CC1 |  |
| 20 ×10⁻⁶ cm/s | 6 µM (≈ 3.21 µg/mL) | O=C(NC1CCN(S(=O)(=O)C[C@H]2CC[C@H](NCc3ccccc3Cl)CC2)CC1)c1cc(C2CC2)on1 |  |
| 18 ×10⁻⁶ cm/s | 10 µM (≈ 4.95 µg/mL) | CC(C)(C)CCN[C@H]1CC[C@H](CS(=O)(=O)N2CCC(NC(=O)c3cc(C4CC4)on3)CC2)CC1 |  |
| 16 ×10⁻⁶ cm/s | 48 µM (≈ 24.3 µg/mL) | O=C(NC1CCN(S(=O)(=O)C[C@H]2CC[C@H](NCCC(F)(F)F)CC2)CC1)c1cc(C2CC2)on1 |  |
| < 1 ×10⁻⁶ cm/s | 479 µM (≈ 197 µg/mL) | NC[C@H]1CC[C@H](S(=O)(=O)N2CCC(NC(=O)c3cc(C4CC4)on3)CC2)CC1 |  |
| 8.9 ×10⁻⁶ cm/s | 61 µM (≈ 31.5 µg/mL) | Cc1ccc(CN[C@H]2CC[C@H](CS(=O)(=O)N3CCC(NC(=O)c4cc(C5CC5)on4)CC3)CC2)nc1 |  |
| < 1 ×10⁻⁶ cm/s | 297 µM (≈ 126 µg/mL) | CN[C@H]1CC[C@H](CS(=O)(=O)N2CCC(NC(=O)c3cc(C4CC4)on3)CC2)CC1 |  |
| 5 ×10⁻⁶ cm/s | 410 µM (≈ 168 µg/mL) | O=C(NC1CCN(S(=O)(=O)CCCN2CCCC2)CC1)c1cc(C2CC2)on1 |  |
